Experimental data published in paper PMC8911927, “Synthesis and Biological Evaluation of 1-(2-(6-Methoxynaphthalen-2-yl)-6-methylnicotinoyl)-4-Substituted Semicarbazides/Thiosemicarbazides as Anti-Tumor Nur77 Modulators” (Molecules, 2022).

What was measured:
Type in all cases: cell-based, human
Conditions in all cases: 72 h, mean values
HeLa cells = assay: MTT cytotoxicity, HeLa
Protocol: (§1) All of the cell lines were obtained from the American Type Culture Collection (ATCC, Manassas, VA, USA) and grown in DMEM or RPMI culture medium containing 10% fetal bovine serum (v/v) in 5% CO2 at 37 °C.
(§2) Confluent cells in good state were cultured in 96-well plates (5–10 × 10^4 cells/mL). After cells were attached to the plate, compounds with various concentrations were applied at 37 °C for 72 h. Then, the cells were incubated with 10 μL of 5 mg/mL MTT reagent at 37 °C for 4 h. The supernatant was removed, and the cells were dissolved in 100 μL dimethyl sulfoxide and shaken for 5 min. Finally, the light absorption (OD) of the dissolved cells was measured at […].

MCF-7 cells = assay: MTT cytotoxicity, MCF-7
Protocol: as §1, §2

HGC-27 cells = assay: MTT cytotoxicity, HGC-27
Protocol: as §1, §2

Substance: 1-(2-(6-Methoxynaphthalen-2-yl)-6-methylnicotinoyl)-4-(4-methoxyphenyl)semicarbazide [Compound 9g]
- IC50 (HeLa cells): 20.2 ± 0.31 µM
- IC50 (MCF-7 cells): 18.4 ± 0.21 µM
- IC50 (HGC-27 cells): 19.4 ± 0.63 µM

Substance: 1-(2-(6-Methoxynaphthalen-2-yl)-6-methylnicotinoyl)-4-m-tolylthiosemicarbazide [Compound 9r]
- IC50 (HeLa cells): 20.2 ± 0.24 µM
- IC50 (MCF-7 cells): 18.4 ± 0.41 µM
- IC50 (HGC-27 cells): 19.4 ± 0.11 µM

Substance: 1-(2-(6-Methoxynaphthalen-2-yl)-6-methylnicotinoyl)-4-o-tolylsemicarbazide [Compound 9d]
- IC50 (HeLa cells): 20.7 ± 0.26 µM
- IC50 (MCF-7 cells): 35.2 ± 0.6 µM
- IC50 (HGC-27 cells): 39.1 ± 0.72 µM

Substance: 1-(2-(6-methoxynaphthalen-2-yl)-6-methylnicotinoyl)-4-m-tolylsemicarbazide [Compound 9e]
- IC50 (HeLa cells): 24.65 ± 0.24 µM
- IC50 (MCF-7 cells): 33.34 ± 0.12 µM
- IC50 (HGC-27 cells): 49.24 ± 0.26 µM

Substance: 4-(3,5-Dimethylphenyl)-1-(2-(6-methoxynaphthalen-2-yl)-6-methylnicotinoyl)semicarbazide [Compound 9i]
- IC50 (HeLa cells): 20.1 ± 0.44 µM
- IC50 (MCF-7 cells): 21.4 ± 0.25 µM
- IC50 (HGC-27 cells): 19.7 ± 0.31 µM

Substance: 4-Cyclopentyl-1-(2-(6-methoxynaphthalen-2-yl)-6-methylnicotinoyl)semicarbazide [Compound 9a]
- IC50 (HeLa cells): 88.39 ± 0.22 µM
- IC50 (MCF-7 cells): 60.26 ± 0.11 µM
- IC50 (HGC-27 cells): 38.39 ± 0.32 µM

Substance: 1-(2-(6-Methoxynaphthalen-2-yl)-6-methylnicotinoyl)-4-o-tolylthiosemicarbazide [Compound 9q]
- IC50 (HeLa cells): 14.2 ± 0.22 µM
- IC50 (MCF-7 cells): 23.3 ± 0.21 µM
- IC50 (HGC-27 cells): 19.4 ± 0.69 µM

Substance: 4-Cyclohexyl-1-(2-(6-methoxynaphthalen-2-yl)-6-methylnicotinoyl)thiosemicarbazide [Compound 9m]
- IC50 (HeLa cells): 34.5 ± 0.37 µM
- IC50 (MCF-7 cells): 35.4 ± 0.41 µM
- IC50 (HGC-27 cells): 30.2 ± 0.61 µM

Substance: 4-Benzyl-1-(2-(6-methoxynaphthalen-2-yl)-6-methylnicotinoyl)thiosemicarbazide [Compound 9n]
- IC50 (HeLa cells): 25.33 ± 0.1 µM
- IC50 (MCF-7 cells): 21.1 ± 0.32 µM
- IC50 (HGC-27 cells): 23.16 ± 0.07 µM

Substance: 1-(2-(6-Methoxynaphthalen-2-yl)-6-methylnicotinoyl)-4-phenylthiosemicarbazide [Compound 9p]
- IC50 (HeLa cells): 14.7 ± 0.31 µM
- IC50 (MCF-7 cells): 23.34 ± 0.21 µM
- IC50 (HGC-27 cells): 19.24 ± 0.09 µM

Substance: 1-(2-(6-Methoxynaphthalen-2-yl)-6-methylnicotinoyl)-4-(4-methoxyphenyl)thiosemicarbazide [Compound 9t]
- IC50 (HeLa cells): 10.1 ± 0.61 µM
- IC50 (MCF-7 cells): 11.4 µM
- IC50 (HGC-27 cells): 16.7 µM

Substance: 1-(2-(6-Methoxynaphthalen-2-yl)-6-methylnicotinoyl)-4-p-tolylsemicarbazide [Compound 9f]
- IC50 (HeLa cells): 24.2 ± 0.61 µM
- IC50 (MCF-7 cells): 23.3 ± 0.1 µM
- IC50 (HGC-27 cells): 29.4 ± 0.31 µM

Substance: 1-(2-(6-Methoxynaphthalen-2-yl)-6-methylnicotinoyl)-4-phenethylthiosemicarbazide [Compound 9o]
- IC50 (HeLa cells): 20.7 ± 0.22 µM
- IC50 (MCF-7 cells): 35.2 ± 0.09 µM
- IC50 (HGC-27 cells): 39.12 ± 0.21 µM

Substance: 4-Benzyl-1-(2-(6-methoxynaphthalen-2-yl)-6-methylnicotinoyl)semicarbazide [Compound 9c]
- IC50 (HeLa cells): 25.3 ± 0.45 µM
- IC50 (MCF-7 cells): 21.1 ± 0.52 µM
- IC50 (HGC-27 cells): 23.16 ± 0.2 µM

Substance: 4-(2,4-Difluorophenyl)-1-(2-(6-methoxynaphthalen-2-yl)-6-methylnicotinoyl)thiosemicarbazide [Compound 9v]
- IC50 (HeLa cells): 10.1 ± 0.11 µM
- IC50 (MCF-7 cells): 11.6 ± 0.56 µM
- IC50 (HGC-27 cells): 12.4 ± 0.25 µM

Substance: 4-(3,5-Difluorophenyl)-1-(2-(6-methoxynaphthalen-2-yl)-6-methylnicotinoyl)semicarbazide [Compound 9j]
- IC50 (HeLa cells): 12.1 ± 0.21 µM
- IC50 (MCF-7 cells): 16.3 ± 0.34 µM
- IC50 (HGC-27 cells): 16.6 ± 0.44 µM

Substance: 4-(3,4-Dichlorophenyl)-1-(2-(6-methoxynaphthalen-2-yl)-6-methylnicotinoyl)thiosemicarbazide [Compound 9w]
- IC50 (HeLa cells): 10.7 ± 0.34 µM
- IC50 (MCF-7 cells): 10.9 ± 0.42 µM
- IC50 (HGC-27 cells): 16.4 ± 0.31 µM

Substance: 1-(2-(6-Methoxynaphthalen-2-yl)-6-methylnicotinoyl)-4-p-tolylthiosemicarbazide [Compound 9s]
- IC50 (HeLa cells): 16.12 ± 0.07 µM
- IC50 (MCF-7 cells): 19.3 ± 0.3 µM
- IC50 (HGC-27 cells): 10.4 ± 0.19 µM

Substance: 4-(3,4-Dichlorophenyl)-1-(2-(6-methoxynaphthalen-2-yl)-6-methylnicotinoyl)semicarbazide [Compound 9k]
- IC50 (HeLa cells): 10.1 ± 0.69 µM
- IC50 (MCF-7 cells): 11.6 ± 0.45 µM
- IC50 (HGC-27 cells): 12.4 ± 0.5 µM
